Measured values published in US10076549B2, “Gastric health supplement and methods thereof” (SmartPak Equine LLC, priority 2012, dated 2018).

What was measured:
[1] = system: nonglandular gastric ulcers; assay: 42-day 2-period crossover equine health study: gastroscopic nonglandular gastric ulcer number (NGN) and severity (NGS) scores; format: in vivo, horse; settings: by Day 14
Protocol: Eight healthy Thoroughbred and Thoroughbred-cross horses from the Equine Health Studies Program (EHSP) herd were used in this study. The study was performed as a 42-day 2-period crossover using a treatment group (n=8) and an untreated control (n=8).
All horses were stall-confined and fed mixed grass hay and sweet feed (OMOLENE® 100; Gray Summit, Mo.). Horses were assigned to the two treatment groups stratified by gastric ulcer score recorded on day 1 of period 1. Treated horses were fed with a Supplement composition of Example 1 above (40 g, twice daily) added to the sweet feed and control horses received no feed supplement.
Prior to beginning the study, all horses underwent physical examination. From Day 1 to Day 14, all horses were treated with omeprazole (GASTROGARD® paste, Merial Limited, Duluth, Ga.; 4 mg/kg, orally q24 h), then omeprazole was discontinued for the remainder of the study. All the horses remained stall-confined. From Day 28 to Day 35, all the horses underwent feed-deprivation, where they were muzzled and deprived of feed for 24 hours and then fed for 24 hours for a total of 96 hours to induce ulcers.
During the feed-deprivation days, the horses were fed 10% of their normal sweet feed, and the treated horses received the Supplement composition of Example 1 above (SMARTPAK® Equine, Plymouth, Mass.). From Day 35 to Day 42, all the horses returned to their normal diet to allow for recovery. The timelines of the events occurring during the period of the 42-day study were depicted in FIG. 1.
(§1) Gastroscopic examinations were performed on all the horses on Day 0, 14, 28, 35 and 42 and nonglandular gastric ulcer number (NGN) and severity (NGS) scores were assigned by the PI (FMA) who was masked to treatment (FIG. 2) (MacAllister et al. 1997). During gastroscopy, gastric juice was aspirated and pH measured.

[2] = system: equine ulcers; settings: background; cited from earlier work
[3] = Gastric juice pH aspirated during gastroscopy, 42-day crossover study; format: in vivo, horse; settings: by Day 14, omeprazole 4 mg/kg orally q24 h
Protocol: as §1
Gastric juice pH values can be determined as follows: gastric juice of a subject animal is aspirated through the biopsy channel of an endoscope and pH is measured at specified time intervals, particularly 1 hour before and then 1 hour after administration of a therapeutic agent or Supplement composition as disclosed herein. Gastric juice pH values can be compared between the times.

[4] = omeprazole paste 4 mg/kg orally q24 h Day 1-14

COc1ccc2nc([S+]([O-])Cc3ncc(C)c(OC)c3C)[nH]c2c1 (stereo not drawn) [omeprazole]
horses with healed gastric ulcers in each study group ([1]; omeprazole 4 mg/kg orally q24 h, 6/8 horses): 75% | NGN score [1, 4]: significantly decreased | NGS score [1, 4]: significantly decreased | gastric juice pH value in horses [2]: increased | treating equine ulcers [2]: effective | gastric juice pH [3]: increased significantly
